From patent publication US7098215B2, “Nitrogenous compounds and antiviral drugs containing the same” (Kureha Chemical Industry Co., Ltd., priority 2000, dated 2006)

Tests used:
[1] = system: ICR male mice; experiment: Acute toxicity in ICR mice, intraperitoneal administration; format: in vivo; details: 3 per group, 50 mg/kg intraperitoneally, twice a day, for four days, number of dead animals after 5 days
Description: Acute toxicity of the antiviral drug was examined. Three groups of 7 week-old, ICR male mice, each group consisting of 3 mice, were bred for one week. The compounds prepared in the Examples, dissolved in a physiological saline solution or distilled water, were intraperitoneally administered at a dose of 50 mg/kg, twice a day, for four days. After 5 days, the number of dead animals was examined.

[2] = system: HIV-1IIIB infected MT-4 cells; experiment: Anti-HIV activity: protection of HIV-1IIIB infected MT-4 cells, MTT method; format: cell-based; details: MOI 0.01, culture for 5 days, concentration inhibiting 50% of cytotoxicity due to HIV infection
Description: HIV-1IIIB infected MT-4 cells were added to 96-well microtiter plates (3.0×10^4/well, MOI (Multiplicity of infection): 0.01), together with test compounds at different concentrations immediately after the infection. After culture for 5 days in a carbon dioxide incubator at 37° C., the number of surviving cells was counted by MTT (tetrazolium) method (Pawels et al., J. Virol. Methods, 20, 309-321, 1988).

| SMILES | Dead mouse [1] | EC50 [2] |
| --- | --- | --- |
| O=C(N[C@@H](CCCNC1CCCc2cccnc21)C(=O)NCc1cccc2ccccc12)c1ccc(CNCc2ncc[nH]2)c2ccccc12 (stereo partly drawn) [Compound No. 41, (2S)-2-(4-((N-imidazol-2-ylmethyl)aminomethyl)naphthoylamino)-5-(5,6,7,8-tetrahydroquinolin-8-ylamino)valeric acid 1-naphthalenemethylamide] | 0/3 | 35 nM |
| C[C@H](NC(=O)[C@H](CCCNC(=N)N)NC(=O)c1ccc(CNCc2nccn2C)c2ccccc12)c1cccc2ccccc12 [Compound No. 97, N^α-(4-((N-(1-methylimidazole-2-ylmethyl)amino)methyl)naphthalene-1-carbonyl)-L-arginine (1′S)-1′-(1-naphthyl)ethylamide] | 0/3 | – |
| O=C(N[C@@H](CCCNC1CCCc2cccnc21)C(=O)NCc1cccc2ccccc12)c1ccc(CNCc2ncc[nH]2)cc1 (stereo partly drawn) [Compound No. 39, (2S)-2-(4-((N-imidazol-2-ylmethyl)aminomethyl)benzoylamino)-5-(5,6,7,8-tetrahydroquinolin-8-ylamino)valeric acid 1-naphthalenemethylamide] | 0/3 | – |
| C[C@H](NC(=O)[C@H](CCCNC1CCCc2cccnc21)NC(=O)c1ccc(CNCc2ncc[nH]2)c2ccccc12)c1cccc2ccccc12 (stereo partly drawn) [Compound No. 57] | 0/3 | 82 nM |
| C[C@H](NC(=O)[C@H](CCCNC1CCCc2cccnc21)NC(=O)c1ccc(CNCc2nccn2C)cc1)c1cccc2ccccc12 (stereo partly drawn) [Compound No. 107] | 0/3 | 35 nM |
| O=C(N[C@@H](CCCNCc1ccccn1)C(=O)NCc1cccc2ccccc12)c1ccc(CNCc2ccccn2)cc1 [Compound No. 60, (S)-2-(4-(N-2-picolylaminomethyl)benzoylamino)-5-(N-2-picolylamino)valeric acid 1-naphthalenemethylamide] | – | 158 nM |
| O=C(N[C@@H](CCCNC1CCCc2cccnc21)C(=O)NCCc1c[nH]c2ccccc12)c1ccc(CNCc2ccccn2)c2ccccc12 (stereo partly drawn) [Compound No. 92, (2S)-2-(4-(N-2-picolylaminomethyl)naphthoyl)amino-5-(5,6,7,8-tetrahydroquinolin-8-yl)aminovaleric acid 2-(3-indolyl)ethylamide] | 0/3 | – |
| O=C(N[C@@H](CCCNC1CCCc2cccnc21)C(=O)NCc1cccc2ccccc12)c1ccc(CNCc2ncc[nH]2)s1 (stereo partly drawn) [Compound No. 16, (2S)-2-(5-(N-(imidazol-2-ylmethyl)aminomethyl)thiophene-2-carbonylamino)-5-(5,6,7,8-tetrahydroquinolin-8-yl)aminovaleric acid 1-naphthalenemethylamide] | – | 633 nM |
| N=C(N)NCCC[C@H](NC(=O)c1ccc(CNCc2ccccn2)c2ccccc12)C(=O)NCc1cccc2ccccc12 [Compound No. 44, N^α-(4-(N-2-picolylaminomethyl)naphthoyl)-L-arginine 1-naphthalenemethylamide] | – | 126 nM |
| NC(N)=NCCC[C@H](NC(=O)c1ccc(CNCc2ccccn2)cc1)C(=O)NCc1cccc2ccccc12 [Compound No. 43, N^α-(4-(N-2-picolylaminomethyl)benzoyl)-L-arginine 1-naphthalenemethylamide] | – | 118 nM |
| C[C@H](NC(=O)[C@H](CCCNC(=N)N)NC(=O)c1ccc(CNCc2ccccn2)c2ccccc12)c1cccc2ccccc12 [Compound No. 99, N^α-(4-(N-2-picolylaminomethyl)naphthoyl)-L-arginine (1′S)-1′-(1-naphthyl)ethylamide] | 0/3 | – |
| C[C@H](NC(=O)[C@H](CCCNC(=N)N)NC(=O)c1ccc(CNCc2ncc[nH]2)cc1)c1cccc2ccccc12 [Compound No. 95, N^α-4-(N-2-(imidazol-2-ylmethyl)aminomethyl)benzoyl-L-arginine (1′S)-1′-(1-naphthyl)ethylamide] | – | 175 nM |
